Assays:
ATX = details: at 10 μM, substrate FS-3; cited from earlier work
liver tumor = test system: liver tumor; parameters: method as in earlier work; details: in vivo; cited from earlier work
recombinant ATX = target: T1, recombinant ATX (Homo sapiens, UniProt Q13822); assay: Amplex Red activity assay, LPC hydrolysis by recombinant ATX (Echelon); type: biochemical; details: for % Inhibition at 10 μΜ: BrP-LPA 10 μΜ; for Ki: Cheng-Prusoff from IC50; for IC50: [S] 50 μΜ, Echelon ATX 2 nM, mean±std
T1 construct: purchased SinoBiological Inc (main data); R&D (additional Km values)
Description: BrP-LPA inhibition was also tested with the more sensitive reagent Amplex Red based on the Amplex™ Red PLD assay kit (Molecular Probes, Interchim, Montluçon, France) originally designed for the measurement of the PLD activity, [49]. All reactions were performed with purified ATX (2 nM) from Echelon at 37°C. The ability of ATX to cleave LPC was detected using a coupled assay that monitors the release of choline using Amplex Red (10 μΜ), choline oxidase (0.2 Units/ml) and horseradish peroxidise (2 Units/ml) The rate of fluorescence increase was measured in a fluorescence plate reader (Tecan Infinite 200 microplate reader from Tecan Trading AG, Switzerland) for up to 80 minutes; the fluorescence increase was linear during that time-frame for all cases. Rates were normalized to control reactions that contained all reaction components except for the test compound.
The biochemistry of lyso-PLD was assessed by following the kinetics data using a wide panel of different ATX substrates [FS-3, different LPC species (14:0, 16:0, 18:0, 18:1)], three different recombinant ATX proteins (R&D, Sino-Biological and Echelon) and three different ATX activity assays (FS-3, TOOS, Amplex Red). The ATX activity was measured at different substrate concentrations (typically from 1-1000 μM) in order to examine whether ATX follows Michaelis-Menten kinetics. The Michaelis constant (Km) was obtained by fitting the substrate dependence of V (ATX activity) to a rectangular hyperbola using the non-linear regression analysis of the statistical software package Prism 4.0 (GraphPad Software, Inc.). Km and Vmax were evaluated from the rectangular hyperbola curve with the use of GraphPad software.
For in vitro inhibition measurements, BrP-LPA was dissolved in water as a stock solution (4 mM) and appropriate dilutions were made in water. The inhibition of ATX by BrP-LPA was measured employing 2 nM recombinant ATX, 50 μΜ LPC (14:0, 16:0, 18:0) and 0.01 to 100 μmol/L of BrP-LPA (final concentrations). The in vitro inhibition of ATX by BrP-LPA was evaluated with three different assays (FS-3, Amplex Red, and TOOS). […] BrP-LPA was also tested for its ability to inhibit mouse plasma ATX activity. Diluted mouse plasma was used as the source of ATX and the analysis of inhibition was made with TOOS as the in vitro inhibition assay.
The inhibition model (competitive, noncompetitive, or mixed type inhibition) was evaluated by graphical analysis with Lineweaver–Burk double reciprocal plots (1/[velocity] versus 1/[substrate]) and Cornish-Bowden plot ([substrate]/[velocity] versus [Inhibitor]). These plots were generated by the measurement of ATX activity in the presence of different BrP-LPA concentrations (0–10 μΜ) and increased amounts of 16:0 LPC (100, 200, 400 μΜ). The inhibition constants (Ki) and IC50 values were determined using the mean values obtained from two independent experiments. The relative remaining ATX activity or LPA levels in the presence of the BrP-LPA was expressed as a percentage of the corresponding control value (ATX activity, LPA levels without inhibitor). The IC50 value was determined graphically by plotting the log concentration of BrP-LPA versus relative remaining ATX activity or LPA levels of each test sample using the sigmoid dose–response fitting method (Prism® software). The IC50 (concentration of BrP-LPA sufficient to inhibit ATX activity or diminish LPA levels by 50%) was calculated by the equation f = y0+a/(1+exp(-(x-x0)/b)) given by SigmaPlot 11.0 (Systat Software, Inc., San Jose, CA, USA).
Ki was calculated using the equation of Cheng and Prusoff: Ki = IC50/1+[S]/Km, where Ki is the binding affinity of the inhibitor, IC50 is the functional strength of the inhibitor, [S] is substrate concentration and Km is the concentration of substrate at which enzyme activity is half maximal. Whereas the IC50 value for a compound may vary between experiments depending on experimental conditions, Ki is an absolute value. […]

SMILES: CCCCCCCCCCCCCCCC(=O)OC[C@@H](O)CC(Br)P(=O)(O)O (stereo partly drawn) [BrP-LPA, 1-bromo-3(S)-hydroxy-4-(palmitoyloxy)butyl-phosphonate]
- inhibition of lysophospholipase D activity of ATX (ATX): 94%
- liver tumor weight and volume (liver tumor): reduce liver tumor weight and volume in vivo
- % Inhibition at 10 μΜ (recombinant ATX; 14:0 LPC 50 μΜ): 75%
- Ki (recombinant ATX; 14:0 LPC): 1 ± 0.4 µM
- % Inhibition at 10 μΜ (recombinant ATX; 18:0 LPC 50 μΜ): 75%
- Ki (recombinant ATX; 18:0 LPC): 0.8 ± 0.2 µM
- IC50 (recombinant ATX; substrate 14:0 LPC): 1.6 ± 0.1 µM
- IC50 (recombinant ATX; substrate 18:0 LPC): 1.1 ± 0.1 µM

From PMC3726599, “A Metabolically-Stabilized Phosphonate Analog of Lysophosphatidic Acid Attenuates Collagen-Induced Arthritis” (PLoS ONE, 2013)
